Results: paper PMC13334477 (RSC Medicinal Chemistry, 2026)
Values joined by “and” are separate entries in the source; they are usually repeats but may differ in a detail not shown here. Identical values can stand only once.

How the values were obtained:
[1] = system: Htel (DNA, G4) AGGGTTAGGGTTAGGGTTAGGG; assay: native ESI-MS; settings: 100 mM ammonium acetate (NH4+), no K+; apparent, site 1 of 2; 10 μM DNA, 20 μM ligand, 4 °C incubation
[2] = Cell viability assay (CellTiter 96 AQueous One); format: cell-based; settings: human, at 1.56 μM
[3] = system: HIVpro1-FT (anti-parallel DNA G4); assay: FRET melting assay, HIVpro1-FT; format: binding, HIV-1; settings: ligand 1 μM, DNA 0.2 μM
Procedure: Doubly labelled oligonucleotides with fluorescein and TAMRA were purchased lyophilized and RP-cartridge purified from Eurogentec (Kanaka Eurogentec, Seraing, Belgium). FRET melting experiments were run on Stratagene Mx3005P real-time PCR equipment in 96-well plates on the DNA sequences listed Table 1. Experiments were performed in 10 mM lithium cacodylate buffer (pH 7.2) and 10 mM KCl and 90 mM LiCl as previously described.[45,46] The DNA concentration was 0.2 μM. The stabilization (ΔT1/2) induced by compounds was calculated as the difference between the Tm of the nucleic acid alone and that measured with a ligand concentration of 1 μM. Data are presented as averages of three independent measurements, each conducted in duplicate (λexc = 492 nm, λem = 516 nm, T interval = 25–95 °C, ramp: 25 °C for 5 min, then 1 °C min^−1, measurements every 1 °C, 8× magnification of the fluorescence signal). The G4 selectivity of the ligands with respect to the duplex was evaluated by determining the Tm values in the presence of 0, 3 or 10 μM of the duplex competitor ds26.
In this assay, we performed thermal denaturation experiments by heating and recording the fluorescence of DNA oligonucleotides doubly labelled with fluorescein and TAMRA fluorophores (Fig. 3 and S7). Ligand binding to the G4 stabilises the structure, resulting in an increase in the half-dissociation temperature of the structure (ΔT1/2). As a first approximation, the higher the ΔT1/2 (ΔT1/2 higher), the higher the affinity of the ligand for the target.[45]
The fluorescently labeled oligonucleotides were dissolved at a concentration of 0.2 μM in 10 mM lithium cacodylate buffer (pH 7.2) with 10 mM KCl and 90 mM LiCl. […] E) Radar plot representation that summarizes the FRET-melting results (ΔT1/2 (°C)) for each ligand in the presence of HIVpro1-FT (green), HIVpro2-FT (grey), LTR4-FT (bleu), and Htel-FT (red). Data are the results of at least three independent experiments in which each data point was performed in duplicate.

HIV-1 = settings: at 1.56 μM
[4] = system: G4T4G4 (DNA, G4) GGGGTTTTGGGG; assay: native ESI-MS; settings: 100 mM ammonium acetate (NH4+), no K+; apparent, site 1 of 2; 10 μM DNA, 20 μM ligand, 4 °C incubation

Row | SMILES | Kd1 [1] | viability at 24 h, 1.56 µM [2] | ΔT1/2 HIVpro1 ([3]; +10µM ds26) | ΔT1/2 HIVpro1 ([3]; No ds26) | reduction of viral infectivity (HIV-1) | Kd1 [4]
1 | COc1ccc2c(ccc3c2cc2c4ccc(OC)cc4ccc2[n+]3-c2ccc([N+](=O)[O-])cc2)c1 [DBA4] | 11.21 µM | 100% | 5.1±0.5 °C | 7.0±2.0 °C and 7 °C | approximately 20% | –
2 | c1ccc(-[n+]2c3ccc4ccccc4c3cc3c4ccccc4ccc32)cc1 [DBA5] | 14.47 µM | 100% | 3.6±0.04 °C | 5.0±0.03 °C | ~40% | –
3 | COC(=O)c1ccc(-[n+]2c3ccc4cc(OC)ccc4c3cc3c4ccc(OC)cc4ccc32)cc1 [DBA2] | – | – | 3.9±0.2 °C | 5.6±0.3 °C and 5.6 °C | – | –
4 | COc1ccc(-[n+]2c3ccc4cc(OC)ccc4c3cc3c4ccc(OC)cc4ccc32)cc1 [DBA3] | – | – | 5.0±0.1 °C | 6.3±0.7 °C and 6.3 °C | – | 36.88 µM
5 | COc1ccc2c(ccc3c2cc2c4ccc(OC)cc4ccc2[n+]3-c2ccccc2)c1 [DBA1] | – | – | 4.4±0.7 °C | 6.9±0.04 °C | – | –
